# What was measured:
# Format in all cases: in vivo, human
# [1] = system: EGFR-mutated locally advanced or metastatic NSCLC; test: MARIPOSA Phase 3, duration of response by BICR
# [2] = system: EGFR-mutated locally advanced or metastatic NSCLC; test: MARIPOSA Phase 3, progression-free survival after first subsequent therapy (PFS2)
# Text: The efficacy population included all patients who had undergone randomization. Tick marks indicate censoring of data. […]
# [3] = system: EGFR-mutant (Ex19del/L858R) advanced NSCLC; test: MARIPOSA Phase 3, PFS in high-risk subgroups
# Procedure: Key Eligibility Criteria: locally advanced or metastatic NSCLC, treatment-naïve for advanced disease, documented EGFR Ex19del or L858R, and ECOG PS 0 or 1. […] High-risk subgroups analyzed: liver metastases, brain metastases, TP53 co-mutation, detectable EGFRm ctDNAd at baseline, and without EGFRm ctDNAd clearance at C3D1 (Week 9) (FIG. 16). Detection of ctDNA and co-mutations were analyzed by next-generation sequencing (NGS) of blood at baseline. Detection and clearance of Ex19del and L858R ctDNA in blood were analyzed with ddPCR at baseline and C3D1.
smiles,measurement,setting,value
C=CC(=O)Nc1cc(Nc2nccc(-c3cn(C)c4ccccc34)n2)c(OC)cc1N(C)CCN(C)C [Osimertinib],"Response duration, Median (95% CI) among all responders",[1],14.9 (12.9-17.5) mo
same,"Response duration, Median (95% CI) among confirmed responders",[1],16.8 (14.8-18.5) mo
same,Censored (DOR),[1]; confirmed responders,151 (48.1%) (%)
same,"DOR time to event, 25th percentile (95% CI)",[1]; confirmed responders,"9.26 (9.13, 10.25) months"
same,Duration of response >=6 months,[1]; confirmed responders,267 (65.0%) (%)
same,Duration of response >=12 months,[1]; confirmed responders,181 (57.6%) (%)
same,Duration of response >=18 months,[1]; confirmed responders,86 (27.4%) (%)
same,Duration of response >=24 months,[1]; confirmed responders,21 (6.7%) (%)
same,Event (DOR),[1]; confirmed responders,163 (51.9%) (%)
same,Median duration of response (95% CI),[1]; confirmed responders,"16.76 (14.75, 18.53) months"
same,"DOR time to event, 75th percentile (95% CI)","[1]; confirmed responders, NE = not estimable","NE (NE, NE)"
same,Median duration of response (95% CI),"[1]; confirmed responders, listed as osimertinib",16.8 months
same,Confirmed Responders (Confirmed CR + Confirmed PR),"[1]; number of patients, measurable disease at baseline",314
same,Censored (PFS2),[2]; Full Analysis Set,299 (60.7%) (%)
same,Event (PFS2),[2]; Full Analysis Set,130 (30.3%) (%)
same,PFS2 6-month event-free rate (95% CI),[2]; Full Analysis Set,"0.95 (0.93, 0.97)"
same,PFS2 18-month event-free rate (95% CI),[2]; Full Analysis Set,"0.76 (0.71, 0.80)"
same,PFS2 30-month event-free rate (95% CI),[2]; Full Analysis Set,"0.56 (0.46, 0.66)"
same,PFS2 Median (95% CI),[2]; Full Analysis Set,"NE (29.31, NE)"
same,"PFS2 time to event, 25th percentile (95% CI)",[2]; Full Analysis Set,"18.40 (15.93, 20.50) months"
same,"PFS2 time to event, 75th percentile (95% CI)",[2]; NE = not estimable,"NE (NE, NE)"
same,Median PFS,"[3]; detectable baseline ctDNA, Biodesix ddPCR",14.8 months
same,Median PFS,[3]; wild-type TP53 at baseline,19.9 months
same,Median PFS,[3]; with TP53 co-mutations at baseline,12.9 months
same,Median PFS,[3]; with brain metastases at baseline,13.0 months
same,Median PFS,"[3]; with cleared ctDNA at C3D1, Biodesix ddPCR",16.5 months
same,Median PFS,[3]; with liver metastases at baseline,11.0 months
same,Median PFS,[3]; without brain metastases at baseline,19.9 months
same,Median PFS,"[3]; without cleared ctDNA at C3D1, Biodesix ddPCR",9.1 months
same,Median PFS,"[3]; without detectable baseline ctDNA, Biodesix ddPCR",21.9 months
same,Median PFS,[3]; without liver metastases at baseline,18.3 months

# Reference: US20260356957A1, “METHODS FOR TREATMENT OF NON-SMALL CELL LUNG CANCER (NSCLC)” (Janssen Biotech, Inc., priority 2023, published 2026)
